Test system: Staphylococcus aureus (ATCC 6538)
Assay: Minimum concentration for total antimicrobial activity, AOAC method 955.15 (Phenol Coefficient Method) with minor modifications
Assay type: cell-based

Row | SMILES | antimicrobial activity (in words) | Minimal Concentration (minimum concentration for total antimicrobial activity, incorporated into composition F, contact time 10 minutes, turbidity after 72 hours at 37° C.)
1 | Cc1ccc(C(C)C)cc1O [Carvacrol] | excellent antimicrobial activity | 0.07 v/v %
2 | Cc1ccc(C(C)C)c(O)c1 [Thymol] | excellent antimicrobial activity | –

— patent US9451763B2, “Disinfectant formulation” (Laboratoire M2, priority 2008, dated 2016)
